The record followed here is patent US9771372B2, “Compounds useful as S100-inhibitors” (Active Biotech AB, priority 2014, dated 2017).

The target of this experiment is T1, interaction between biotinylated human S100A9 and human RAGE-Fc (Homo sapiens, UniProt P06702).
T1 construct: made in house; host or cells: E. coli BL21(DE3)/pET1120 (pLR757)
T1 sequence (P06702 1-114): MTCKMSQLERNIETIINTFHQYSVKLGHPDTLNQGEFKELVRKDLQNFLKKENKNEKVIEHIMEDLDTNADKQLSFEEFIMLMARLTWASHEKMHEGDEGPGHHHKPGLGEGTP
Description: AlphaScreen inhibition assay, Biot-hS100A9:hRAGE-Fc (S100A9-RAGE inhibition assay). The format is binding. Conditions: biot-hS100A9 and rhRAGE-Fc, Ca2+ and Zn2+ in buffer. The source says:
FIG. 1 is a schematic representation of an assay of the inhibition of the interaction between biotinylated human S100A9 and human RAGE-Fc using a small molecule S100A9 binder.
Inhibition Assay, Biot-hS100A9:hRAGE-Fc
The AlphaScreen (Amplified Luminescent Proximity Homogeneous Assay) contains two types of beads, Alpha Donor beads and Acceptor beads (PerkinElmer). Upon laser excitation at 680 nm a photosensitizer in the Donor bead converts ambient oxygen to a more excited singlet state. The singlet oxygen molecule diffuses (maximum 200 nm) to react with a thioxene derivative in the Acceptor bead and generates a chemiluminescence reaction. Fluorophores in the Acceptor bead subsequently emit light at 520-620 nm which can be detected in the EnVision® Multilabel plate Reader (PerkinElmer). The beads are light sensitive and all work with the beads is performed under subdued light conditions or using green filters on light sources (Roscolux Chroma Green #389, Rosco).
In the AlphaScreen Inhibition Assay described here, protein A (Staphylococcus aureus) conjugated Acceptor beads are used together with streptavidin coated Donor beads (Perkin Elmer 6760617M). The Acceptor beads are pre-incubated with Fc-tagged recombinant human RAGE (rhRAGE-Fc) allowing binding of the rhRAGE-Fc to protein A on the beads. Biotinylated human S100A9 (biot-hS100A9) is pre-incubated with the low molecular test compounds. The pre-mixes are then added to the wells of a micro-plate and incubated allowing interaction between biot-hS100A9 and rhRAGE-Fc. Subsequent addition of streptavidin coated Donor beads causes binding of the streptavidin to the biotinylated hS100A9. After an additional incubation the signal is measured.
Without inhibitory compounds, the interaction of biot-hS100A9 to rhRAGE-Fc will bring the Acceptor and Donor beads in close proximity thus generating a high signal. With an inhibitor present the complex will not form resulting in a decreased signal.
The AlphaScreen assay method is used for screening of the inhibitory effect of different compound samples at fixed concentrations or for IC50 determination by varying the compound concentrations. Samples of test compounds and references are prepared from solutions in DMSO. Relevant reference inhibitors and DMSO are used as controls for defined inhibition and non-inhibition, respectively in the assay. The percent inhibition in assay for test compounds and references are calculated by comparing their obtained assay signals with the signal values for the control with only DMSO (no compound).
Assay concentration of biotinylated hS100A9 and rhRAGE-Fc are batch dependent, and are determined and defined by separate cross-titration experiments using this AlphaScreen inhibition method to verify the optimal setup regarding signal strength and achievement of a defined inhibition with relevant reference compounds. The Final assay concentrations of Acceptor and Donor beads are 20 μg/mL.
Assay buffer is prepared by adding CaCl2 and ZnCl2 to HBS-P and is used freshly prepared in the experiment.
Biotin-hS100A9 solution for the experiment is prepared by dilution of appropriate amount of stock solution biot-hS100A9 in assay buffer (with CaCl2 and ZnCl2) and incubation in room temperature for 30 minutes.
rhRAGE-Fc solution for the experiment is prepared by dilution appropriate amount of rhRAGE-Fc stock in assay buffer.
Protein A Acceptor beads are diluted in assay buffer and are added to an equal volume of the prepared diluted rhRAGE-Fc solution. The beads are light sensitive. The vial is covered with aluminum foil and incubated at room temperature in the dark until biot-hS100A9+compound incubation is finished (see below).
Streptavidin-coated Donor beads are diluted in assay buffer. The beads are very light sensitive. The vial is covered with aluminum foil and incubated at room temperature in the dark until use (see below).
Samples of test compounds, appropriate references and DMSO control are diluted in assay buffer. […]

Usually IC50 stands for the point on the concentration scale where inhibition reaches its midpoint. Turning to `O=C(CCC1(O)CCCC1)NC1(C(F)(F)F)C(=O)Nc2nc3cc(Cl)c(Cl)cc3n21` (centres unmarked) [Example 88, N-[10,11-dichloro-4-oxo-3-(trifluoromethyl)-2,5,7-triazatricyclo[6.4.0.0^2,6]dodeca-1(8),6,9,11-tetraen-3-yl]-3-(1-hydroxycyclopentyl)propanamide], the IC50 amounted to 1.61 µM.
Next, `O=C(CC1CCCCC1)NC1(C(F)(F)F)C(=O)Nc2nc3cc(F)c(F)cc3n21` (centres unmarked) [Example 74, 2-cyclohexyl-N-[10,11-difluoro-4-oxo-3-(trifluoromethyl)-2,5,7-triazatricyclo[6.4.0.0^2,6]-dodeca-1(8),6,9,11-tetraen-3-yl]acetamide]: 3.6 µM; `O=C(CCC1CCCC1)NC1(C(F)(F)F)C(=O)Nc2nc3cc(Cl)c(Cl)cc3n21` (single isomer, unassigned) [Example 219a, 3-cyclopentyl-N-[10,11-dichloro-4-oxo-3-(trifluoromethyl)-2,5,7-triazatricyclo[6.4.0.0^2,6]dodeca-1(12),6,8,10-tetraen-3-yl]propanamide]: 0.94 µM.
With `Cc1cc2nc3n(c2cc1C)C(NC(=O)c1cccc(C2CCCCC2)n1)(C(F)(F)F)C(=O)N3` (centres unmarked) [Example 36, 6-cyclohexyl-N-[10,11-dimethyl-4-oxo-3-(trifluoromethyl)-2,5,7-triazatricyclo[6.4.0.0^2,6]-dodeca-1(12),6,8,10-tetraen-3-yl]pyridine-2-carboxamide] the figure was 3.7 µM; with `O=C(CCC1CCCC1)NC1(C(F)(F)F)C(=O)Nc2nc3c(C(F)(F)F)cc(Br)cc3n21` (centres unmarked) [Example 129, N-[11-bromo-4-oxo-3,9-bis(trifluoromethyl)-2,5,7-triazatricyclo[6.4.0.0^2,6]dodeca-1(8),6,9,11-tetraen-3-yl]-3-cyclopentylpropanamide], 2.26 µM.
With `O=C(NC1(C(F)(F)F)C(=O)Nc2nc3cc(Cl)c(Cl)cc3n21)C1CN(c2ccccn2)C1` (centres unmarked) [Example 52, N-[10,11-dichloro-4-oxo-3-(trifluoromethyl)-2,5,7-triazatricyclo[6.4.0.0^2,6]dodeca-1(12),6,8,10-tetraen-3-yl]-1-(pyridin-2-yl)azetidine-3-carboxamide] the figure was 0.7 µM; with `O=C(CCC1CCCC1)NC1(C(F)(F)F)C(=O)Nc2nc3c(F)cc(F)cc3n21` (centres unmarked) [Example 86, 3-cyclopentyl-N-[9,11-difluoro-4-oxo-3-(trifluoromethyl)-2,5,7-triazatricyclo-[6.4.0.0^2,6]dodeca-1(12),6,8,10-tetraen-3-yl]propanamide], 6.4 µM.
In the case of `COc1ccc(-c2cccc3c2nc2n3C(NC(=O)CCC3CCCC3)(C(F)(F)F)C(=O)N2)cn1` (centres unmarked) [Example 188, 3-cyclopentyl-N-[9-(6-methoxypyridin-3-yl)-4-oxo-3-(trifluoromethyl)-2,5,7-triazatricyclo[6.4.0.0^2,6]dodeca-1(12),6,8,10-tetraen-3-yl]propanamide], the IC50 was 0.94 µM.
For `COCC(=O)N1CCC(C(=O)NC2(C(F)(F)F)C(=O)Nc3nc4cc(Cl)c(Cl)cc4n32)CC1` (centres unmarked) [Example 44, N-[10,11-dichloro-4-oxo-3-(trifluoromethyl)-2,5,7-triazatricyclo[6.4.0.0^2,6]dodeca-1(12),6,8,10-tetraen-3-yl]-1-(2-methoxyacetyl)piperidine-4-carboxamide], the half-maximal inhibitory concentration (IC50) turned out to be 4.7 µM.
With `O=C(CCC1CCCC1)NC1(C(F)(F)F)C(=O)Nc2nc3cc(Cl)c(Cl)cc3n21` (centres unmarked) [Example 39, 3-cyclopentyl-N-[10,11-dichloro-4-oxo-3-(trifluoromethyl)-2,5,7-triazatricyclo[6.4.0.0^2,6]-dodeca-1(12),6,8,10-tetraen-3-yl]propanamide] the figure was 0.5 µM.
With `Cc1cc2nc3n(c2cc1C)C(NC(=O)CCc1ccccc1)(C(F)(F)F)C(=O)N3` (centres unmarked) [Example 15, N-[10,11-dimethyl-4-oxo-3-(trifluoromethyl)-2,5,7-triazatricyclo[6.4.0.0^2,6]dodeca-1(8),6,9,11-tetraen-3-yl]-3-phenylpropanamide] the figure was 1.4 µM; with `O=C(CCC1CCCC1)NC1(C(F)(F)F)C(=O)Nc2nc3c(NS(=O)(=O)C4CC4)cccc3n21` (centres unmarked) [Example 165, 3-cyclopentyl-N-[9-cyclopropanesulfonamido-4-oxo-3-(trifluoromethyl)-2,5,7-triazatricyclo[6.4.0.0^2,6]dodeca-1(12),6,8,10-tetraen-3-yl]propanamide], 1.43 µM.
Next, `CCCC(=O)NC1(C(F)(F)F)C(=O)Nc2nc3c(-c4ccc(OC)cc4)cccc3n21` (centres unmarked) [Example 234, N-[9-(4-methoxyphenyl)-4-oxo-3-(trifluoromethyl)-2,5,7-triazatricyclo[6.4.0.0^2,6]dodeca-1(12),6,8,10-tetraen-3-yl]butanamide]: 0.92 µM; `COc1ccc(-c2cccc3c2nc2n3C(NC(=O)CCC3CCCC3)(C(F)(F)F)C(=O)N2)cc1` (centres unmarked) [Example 186, 3-cyclopentyl-N-[9-(4-methoxyphenyl)-4-oxo-3-(trifluoromethyl)-2,5,7-triazatricyclo[6.4.0.0^2,6]dodeca-1(12),6,8,10-tetraen-3-yl]propanamide]: 0.58 µM; `O=C(NC1(C(F)(F)F)C(=O)Nc2nc3cc(Cl)c(Cl)cc3n21)c1cccc(CO)n1` (centres unmarked) [Example 97, N-[10,11-dichloro-4-oxo-3-(trifluoromethyl)-2,5,7-triazatricyclo[6.4.0.0^2,6]dodeca-1(8),6,9,11-tetraen-3-yl]-6-(hydroxymethyl)pyridine-2-carboxamide]: 0.19 µM.
As to `CC(=O)c1cccc2c1nc1n2C(NC(=O)CCC2CCCC2)(C(F)(F)F)C(=O)N1` (single isomer, unassigned) [Example 224a, N-[9-acetyl-4-oxo-3-(trifluoromethyl)-2,5,7-triazatricyclo[6.4.0.0^2,6]dodeca-1(12),6,8,10-tetraen-3-yl]-3-cyclopentylpropanamide], the IC50 turned out to be 0.88 µM.
With `COCCNc1cccc(C(=O)NC2(C(F)(F)F)C(=O)Nc3nc4cc(C)c(C)cc4n32)n1` (single isomer, unassigned) [Example 220a, N-[10,11-dimethyl-4-oxo-3-(trifluoromethyl)-2,5,7-triazatricyclo[6.4.0.0^2,6]dodeca-1(12),6,8,10-tetraen-3-yl]-6-[(2-methoxyethyl)amino]pyridine-2-carboxamide] the figure was 1.93 µM; with `O=C(CCC1CCCC1)NC1(C(F)(F)F)C(=O)Nc2nc3c(-c4ccc(Cl)c(Cl)c4)cccc3n21` (centres unmarked) [Example 203, 3-cyclopentyl-N-[9-(3,4-dichlorophenyl)-4-oxo-3-(trifluoromethyl)-2,5,7-triazatricyclo[6.4.0.0^2,6]dodeca-1(12),6,8,10-tetraen-3-yl]propanamide], 1.34 µM.
With `CC(=O)c1cccc2c1nc1n2C(NC(=O)CCC2CCCC2)(C(F)(F)F)C(=O)N1` (centres unmarked) [Example 122, N-[9-acetyl-4-oxo-3-(trifluoromethyl)-2,5,7-triazatricyclo[6.4.0.0^2,6]dodeca-1(12),6,8,10-tetraen-3-yl]-3-cyclopentylpropanamide] the figure was 1.5 µM.
Next, `COCCNc1nc(C(=O)NC2(C(F)(F)F)C(=O)Nc3nc4cc(C)c(C)cc4n32)cs1` (centres unmarked) [Example 119, N-[10,11-dimethyl-4-oxo-3-(trifluoromethyl)-2,5,7-triazatricyclo[6.4.0.0^2,6]dodeca-1(8),6,9,11-tetraen-3-yl]-2-[(2-methoxyethyl)amino]-1,3-thiazole-4-carboxamide]: 1.82 µM.
